Values of other authors as cited in patent publication US20030180387A1, “Method for increasing the antioxidative potential of selenium-containing aqueous solutions” (priority 2000, published 2003).
Like-named read-outs stand apart in the source and are kept apart here.

In the case of `O=[Se](O)O` [selenite], the “Eo, standard redox potential” value (acidic environment) is given as −0.740 (acidic environment) Volt and the “Eo, standard redox potential” value (basic environment) is given as “+0.366 (basic environment) Volt”.
